In publication PMC9212739 (Antiviral Research, 2022):
“And” between values parts separate entries of the source, which are not always exact repeats. Identical values can stand only once. Like-named read-outs stand apart in the source and are kept apart here.

Key:
[1] = system: SARS-CoV-2 in VeroE6 TMPRSS2 cells; experiment: microbe, parasite or virus in culture; format: cell-based
in vitro = conditions: african green monkey, veroe6 tmprss2 cells
[2] = system: LCMV, MACV and SARS-CoV-2 ExoN; format: biochemical
LCMV ExoN = LCMV ExoN (Mammarenavirus choriomeningitidis, UniProt P09992); experiment: biochemical; set-up: species or system Lymphocytic Choriomeningitis virus
Chain of LCMV ExoN (P09992 357-558 limits assumed): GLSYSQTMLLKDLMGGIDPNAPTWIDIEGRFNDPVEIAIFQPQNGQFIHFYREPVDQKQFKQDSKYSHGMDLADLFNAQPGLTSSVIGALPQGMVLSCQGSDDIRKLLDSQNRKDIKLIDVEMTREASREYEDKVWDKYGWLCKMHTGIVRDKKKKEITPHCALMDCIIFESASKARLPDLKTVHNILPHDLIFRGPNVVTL

MACV ExoN = MACV ExoN (Mammarenavirus machupoense, UniProt P26578); experiment: biochemical; set-up: species or system Machupo virus
Chain of MACV ExoN (P26578 355-564 limits assumed): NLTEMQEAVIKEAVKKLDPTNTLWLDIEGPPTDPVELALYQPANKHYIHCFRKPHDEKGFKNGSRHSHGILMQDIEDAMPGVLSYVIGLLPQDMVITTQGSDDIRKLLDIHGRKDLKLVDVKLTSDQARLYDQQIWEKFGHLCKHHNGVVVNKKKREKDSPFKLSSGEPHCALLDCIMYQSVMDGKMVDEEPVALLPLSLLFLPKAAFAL

LCMV minigenome = format: cell-based
[3] = molecular target: SARS-CoV-2 ExoN nsp14/nsp10 complex (Severe acute respiratory syndrome coronavirus 2, UniProt P0DTD1); experiment: biochemical; conditions: read-out: % inhibition of ExoN at 5 μM
[4] = Severe acute respiratory syndrome coronavirus 2, VeroE6/TMPRSS2
[5] = read-out: % inhibition of ExoN at 5 μM

| Compound | EC50 [1] [µM] | EC50 [1, 4] [µM] | CC50 at 48 h (in vitro) [µM] | % inhibition of ExoN at 20 μM, all ExoN [2] [%] | IC50 (LCMV ExoN; IC50) | inhibition at 5 µM (LCMV ExoN; [5]) [%] | IC50 (MACV ExoN; IC50) | inhibition at 5 µM (MACV ExoN; [5]) [%] | antiviral effect (LCMV minigenome) | inhibition at 5 µM [3] [%] |
| --- | --- | --- | --- | --- | --- | --- | --- | --- | --- | --- |
| O=C(O)C1=CC(=C(c2ccc(O)c(C(=O)O)c2)c2ccc(O)c(C(=O)O)c2)C=CC1=O [Compound 40, Aurintricarboxyclic acid] | 27 | 27.2 ± 20.7 | > 50 | 100 | 7.05 µM and 7.1 µM | 52 | 5.57 µM and 5.6 µM | 39 | no antiviral effect | 23 |
| CCC(CC)COC(=O)[C@H](C)N[P@](=O)(OC[C@H]1O[C@@](C#N)(c2ccc3c(N)ncnn23)[C@H](O)[C@@H]1O)Oc1ccccc1 [Remdesivir] | – | 1.5 ± 1.1 | – | – | – | – | – | – | – | – |
